Earlier results as cited in patent publication EP1165099B1, “ANGIOTENSIN II AND ANALOGS THEREOF FOR LIMITING SCAR AND ADHESION FORMATION” (UNIVERSITY OF SOUTHERN CALIFORNIA, priority 1999, dated 2006).

System: AT2 receptor

affinity for AT2 than AT1 (ratio of affinity AT2 over AT1)	Substance	binding characteristics (experimental models of the cited literature)
–	Asp-Arg-Val-Tyr-Ile-Xaa-Pro-Phe [(p-NH2-Phe)6-AII]	comparable to AT2 antagonists
100 times	Asp-Arg-Val-Tyr-Ile-His-Pro-Phe [AII]	–
